What was measured:
Assay type in all cases: functional
[1] = target: T1, Ecdysone receptor (Aedes aegypti) (UniProt P49880); test: Fold induction of ecdysone-dependent transactivation in mammalian cell line expressing Aedes aegypti ecdysone receptor at 33 uM
T1 sequence (whole entry): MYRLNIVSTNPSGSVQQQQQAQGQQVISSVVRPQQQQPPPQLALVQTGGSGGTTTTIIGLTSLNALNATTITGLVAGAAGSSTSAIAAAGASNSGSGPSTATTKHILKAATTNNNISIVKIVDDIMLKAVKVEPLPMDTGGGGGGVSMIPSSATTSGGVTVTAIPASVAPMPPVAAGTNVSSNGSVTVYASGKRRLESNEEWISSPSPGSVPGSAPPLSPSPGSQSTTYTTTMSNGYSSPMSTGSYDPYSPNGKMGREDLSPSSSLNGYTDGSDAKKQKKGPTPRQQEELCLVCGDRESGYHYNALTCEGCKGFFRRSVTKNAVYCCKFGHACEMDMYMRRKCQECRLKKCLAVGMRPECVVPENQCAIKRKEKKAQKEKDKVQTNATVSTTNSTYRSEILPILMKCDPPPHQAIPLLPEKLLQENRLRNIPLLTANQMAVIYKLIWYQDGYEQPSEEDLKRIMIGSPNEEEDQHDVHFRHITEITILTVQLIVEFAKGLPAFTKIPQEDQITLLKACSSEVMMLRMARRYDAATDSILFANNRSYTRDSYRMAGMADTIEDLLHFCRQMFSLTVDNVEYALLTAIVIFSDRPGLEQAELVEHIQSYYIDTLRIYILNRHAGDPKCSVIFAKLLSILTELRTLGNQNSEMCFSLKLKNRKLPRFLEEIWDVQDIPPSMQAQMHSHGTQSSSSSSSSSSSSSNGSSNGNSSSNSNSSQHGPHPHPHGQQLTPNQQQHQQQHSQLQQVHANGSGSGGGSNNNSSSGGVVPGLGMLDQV

[2] = target: T1, Ecdysone receptor (Aedes aegypti); test: Ratio of maximal ecdysone-dependent transactivation in cell line expressing Aedes aegypti ecdysone receptor compared to cpd2
Ecdysone receptor = target: T2, Ecdysone receptor (Aedes aegypti, UniProt P49880); test: Effective concentration for ecdysone-dependent transactivation in mammalian cell line expressing Aedes aegypti ecdysone receptor
T2 sequence (P49880 whole entry): T1 sequence (whole entry)

Cc1ccccc1C(=O)N1c2ccc(F)cc2[C@@H](Nc2ccc(F)cc2)C[C@H]1C
Fold induction [1]: 158
Rel Max FI [2]: 0.5
EC50 (Ecdysone receptor): 3.19 µM

C[C@@H]1C[C@H](Nc2ccc(F)cc2)c2cc(F)ccc2N1C(=O)c1ccccc1C(F)(F)F
Fold induction [1]: 64
Rel Max FI [2]: 0.32
EC50 (Ecdysone receptor): 11 µM

Cc1ccc(N[C@H]2C[C@@H](C)N(C(=O)c3ccc(C)cc3)c3ccc(C)cc32)cc1
Fold induction [1]: 121
Rel Max FI [2]: 0.26
EC50 (Ecdysone receptor): 5 µM

C[C@@H]1C[C@H](Nc2ccccc2)c2ccccc2N1C(=O)c1ccccc1
Fold induction [1]: 20
Rel Max FI [2]: 0.07
EC50 (Ecdysone receptor): 1.12 µM

Cc1ccc(N[C@H]2C[C@@H](C)N(C(=O)c3ccc(Cl)cc3)c3ccc(C)cc32)cc1
Fold induction [1]: 43
Rel Max FI [2]: 0.39
EC50 (Ecdysone receptor): 2.15 µM

C[C@@H]1C[C@H](Nc2ccc(F)cc2)c2cc(F)ccc2N1C(=O)c1ccccc1F
Fold induction [1]: 78
Rel Max FI [2]: 0.28
EC50 (Ecdysone receptor): 3 µM

C[C@@H]1C[C@H](Nc2ccc(F)cc2)c2cc(F)ccc2N1C(=O)c1cccc(C(F)(F)F)c1
Fold induction [1]: 89
Rel Max FI [2]: 0.93
EC50 (Ecdysone receptor): 1 µM

COc1cccc(C(=O)N2c3ccccc3[C@@H](Nc3ccccc3)C[C@H]2C)c1
Fold induction [1]: 9
Rel Max FI [2]: 0.15
EC50 (Ecdysone receptor): 0.7 µM

Cc1ccc(N[C@H]2C[C@@H](C)N(C(=O)c3cccc(C)c3)c3ccc(C)cc32)cc1
Fold induction [1]: 6
Rel Max FI [2]: 0.01
EC50 (Ecdysone receptor): > 33.3 µM

C[C@@H]1C[C@H](Nc2ccccc2)c2ccccc2N1C(=O)c1cccc(C(F)(F)F)c1
Fold induction [1]: 28
Rel Max FI [2]: 0.42
EC50 (Ecdysone receptor): 1.21 µM

Cc1ccc(N[C@H]2C[C@@H](C)N(C(=O)c3ccccc3C(F)(F)F)c3ccc(C)cc32)cc1
Fold induction [1]: 12
Rel Max FI [2]: 0.04
EC50 (Ecdysone receptor): > 33.3 µM

COc1ccccc1C(=O)N1c2ccc(F)cc2[C@@H](Nc2ccc(F)cc2)C[C@H]1C
Fold induction [1]: 4
Rel Max FI [2]: 0.01
EC50 (Ecdysone receptor): > 33.3 µM

COc1cccc(C(=O)N2c3ccc(C)cc3[C@@H](Nc3ccc(C)cc3)C[C@H]2C)c1
Fold induction [1]: 3
Rel Max FI [2]: 0.01
EC50 (Ecdysone receptor): > 33.3 µM

COc1ccccc1C(=O)N1c2ccc(C)cc2[C@@H](Nc2ccc(C)cc2)C[C@H]1C
Fold induction [1]: 0

C[C@@H]1C[C@H](Nc2ccccc2)c2ccccc2N1C(=O)c1ccc(C(F)(F)F)cc1
Fold induction [1]: 89
Rel Max FI [2]: 0.64
EC50 (Ecdysone receptor): 1.18 µM

Cc1ccc(N[C@H]2C[C@@H](C)N(C(=O)c3cccc(C(F)(F)F)c3)c3ccc(C)cc32)cc1
Fold induction [1]: 12
Rel Max FI [2]: 0.47
EC50 (Ecdysone receptor): 1.84 µM

Cc1cccc(C(=O)N2c3ccc(F)cc3[C@@H](Nc3ccc(F)cc3)C[C@H]2C)c1
Fold induction [1]: 686
Rel Max FI [2]: 0.55
EC50 (Ecdysone receptor): 1.36 µM

C[C@@H]1C[C@H](Nc2ccc(F)cc2)c2cc(F)ccc2N1C(=O)c1cccc(F)c1
Fold induction [1]: 204
Rel Max FI [2]: 0.57
EC50 (Ecdysone receptor): 0.99 µM

COc1ccc(C(=O)N2c3ccc(F)cc3[C@@H](Nc3ccc(F)cc3)C[C@H]2C)cc1
Fold induction [1]: 110
Rel Max FI [2]: 0.87
EC50 (Ecdysone receptor): 1.14 µM

Cc1ccc(C(=O)N2c3ccc(F)cc3[C@@H](Nc3ccc(F)cc3)C[C@H]2C)cc1
Fold induction [1]: 91
Rel Max FI [2]: 0.67
EC50 (Ecdysone receptor): 0.87 µM

C[C@@H]1C[C@H](Nc2ccc(F)cc2)c2cc(F)ccc2N1C(=O)c1ccc(C(F)(F)F)cc1
Fold induction [1]: 230
Rel Max FI [2]: 0.63
EC50 (Ecdysone receptor): 0.92 µM

Cc1ccc(N[C@H]2C[C@@H](C)N(C(=O)c3cccc(F)c3)c3ccc(C)cc32)cc1
Fold induction [1]: 102
Rel Max FI [2]: 0.27
EC50 (Ecdysone receptor): 3 µM

CCc1c(OC)cccc1C(=O)NN(C(=O)c1cc(C)cc(C)c1)C(C)(C)C
EC50 (Ecdysone receptor): 0.44 µM

Cc1ccc(N[C@H]2C[C@@H](C)N(C(=O)c3ccccc3C)c3ccc(C)cc32)cc1
Fold induction [1]: 19
Rel Max FI [2]: 0.04
EC50 (Ecdysone receptor): 8.71 µM

C[C@@H]1C[C@H](Nc2ccccc2)c2ccccc2N1C(=O)c1ccccc1C(F)(F)F
Fold induction [1]: 1

Cc1ccc(N[C@H]2C[C@@H](C)N(C(=O)c3ccc(C(F)(F)F)cc3)c3ccc(C)cc32)cc1
Fold induction [1]: 69
Rel Max FI [2]: 0.23
EC50 (Ecdysone receptor): 4.41 µM

COc1cccc(C(=O)N2c3ccc(F)cc3[C@@H](Nc3ccc(F)cc3)C[C@H]2C)c1
Fold induction [1]: 119
Rel Max FI [2]: 0.98
EC50 (Ecdysone receptor): 1.48 µM

Cc1ccc(C(=O)N2c3ccccc3[C@@H](Nc3ccccc3)C[C@H]2C)cc1
Fold induction [1]: 64
Rel Max FI [2]: 0.42
EC50 (Ecdysone receptor): 0.99 µM

C[C@@H]1C[C@H](Nc2ccccc2)c2ccccc2N1C(=O)c1ccc(Cl)cc1
Fold induction [1]: 130
Rel Max FI [2]: 0.43
EC50 (Ecdysone receptor): 0.98 µM

C[C@@H]1C[C@H](Nc2ccc(F)cc2)c2cc(F)ccc2N1C(=O)c1ccccc1
Fold induction [1]: 283
Rel Max FI [2]: 0.76
EC50 (Ecdysone receptor): 1.73 µM

Cc1ccc(N[C@H]2C[C@@H](C)N(C(=O)c3ccccc3)c3ccc(C)cc32)cc1
Fold induction [1]: 35
Rel Max FI [2]: 0.19
EC50 (Ecdysone receptor): 5.4 µM

COc1ccc(C(=O)N2c3ccccc3[C@@H](Nc3ccccc3)C[C@H]2C)cc1
Fold induction [1]: 64
Rel Max FI [2]: 0.44
EC50 (Ecdysone receptor): 1.43 µM

COc1ccc(C(=O)N2c3ccc(C)cc3[C@@H](Nc3ccc(C)cc3)C[C@H]2C)cc1
Fold induction [1]: 57
Rel Max FI [2]: 0.09
EC50 (Ecdysone receptor): 5.32 µM

Cc1ccc(N[C@H]2C[C@@H](C)N(C(=O)c3ccccc3F)c3ccc(C)cc32)cc1
Fold induction [1]: 5
Rel Max FI [2]: 0.01
EC50 (Ecdysone receptor): > 33.3 µM

C[C@@H]1C[C@H](Nc2ccc(F)cc2)c2cc(F)ccc2N1C(=O)c1ccc(Cl)cc1
Fold induction [1]: 212
Rel Max FI [2]: 0.7
EC50 (Ecdysone receptor): 0.64 µM

C[C@@H]1C[C@H](Nc2ccccc2)c2ccccc2N1C(=O)c1cccc(F)c1
Fold induction [1]: 75
Rel Max FI [2]: 0.44
EC50 (Ecdysone receptor): 0.75 µM

Reference: ChEMBL document CHEMBL1136529, “Synthesis and SAR of cis-1-benzoyl-1,2,3,4-tetrahydroquinoline ligands for control of gene expression in ecdysone responsive systems” (Bioorg Med Chem Lett, 2003)
